The record followed here is patent US12275733B2, “Substituted pyrido[3,4-b]indoles for the treatment of cartilage disorders” (Sanofi, priority 2016, dated 2025).

Molecules are shown by their SMILES.

In this test the test system is ATDC5 cells. Description: Chondrogenesis activity assay in ATDC5 cells (collagen type II induction, immunofluorescence). The test is classed as cell-based, mouse. As to conditions: Mus musculus; for EC50: collagen type II induction in ATDC5 cells, concentration reaching 50% of maximum induction; for Emax: maximum percent induction of collagen type II relative to internal reference compound at 10 μM, ATDC5 cells. Put shortly:
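Mouse ATDC5 cells in insulin (10 μg/ml)-containing DMEM/F12 differentiation medium with 5% FCS were exposed to compound, typically 40 nM–10 μM at 0.1% DMSO, for 4 days at 37 °C. Intracellular collagen type II was quantified by Alexa Fluor 488 immunostaining with high-content imaging, relative to DMSO and a 10 μM reference compound.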

For `CCn1c2c(-c3ccc(Oc4ccccc4)cc3)cc(Cl)cc2c2ccnc(C)c21` [Example 246, 6-Chloro-9-ethyl-1-methyl-8-(4-phenoxy-phenyl)-9H-pyrido[3,4-b]indole], the EC50 (as a rule, the midpoint of the concentration-response curve) came out at 2900 nM and the Emax (commonly the maximal effect, on the per cent scale that the assay sets) fell in the range of 50 to 80%.

Take `Cc1nccc2c1[nH]c1c(-c3cccc(CCO)c3)cc(Cl)cc12` [Example 248, 2-[3-(6-Chloro-1-methyl-9H-pyrido[3,4-b]indol-8-yl)-phenyl]-ethanol]: the half-maximal effective concentration (EC50) is greater than 3300 nM and the Emax lay in the range of 20 to 50%.

Regarding `Cc1nccc2c1[nH]c1c(-c3cccc(OCCN4CCOCC4)c3)cc(Cl)cc12` [Example 249, 6-Chloro-1-methyl-8-[3-(2-morpholin-4-yl-ethoxy)-phenyl]-9H-pyrido[3,4-b]indole], the EC50 is greater than 3300 nM and the Emax lay in the range of 20 to 50%.

The compound `Cc1nccc2c1[nH]c1c(-c3ccc(C(F)(F)F)cc3)cc(Cl)cc12` [Example 252, 6-Chloro-1-methyl-8-(4-trifluoromethyl-phenyl)-9H-pyrido[3,4-b]indole] had an EC50 of 1600 nM and an Emax greater than 80%.

Compound `CCn1c2c(-c3cccc(N4CCOCC4)c3)cc(Cl)cc2c2ccnc(C)c21` [Example 253, 6-Chloro-9-ethyl-1-methyl-8-(3-morpholin-4-yl-phenyl)-9H-pyrido[3,4-b]indole] came in with an EC50 greater than 10000 nM and an Emax of 20 to 50%.

`CCn1c2c(-c3cccc(CN4CCOCC4)c3)cc(Cl)cc2c2ccnc(C)c21` [Example 254, 6-Chloro-9-ethyl-1-methyl-8-(3-morpholin-4-ylmethyl-phenyl)-9H-pyrido[3,4-b]indole] registered an EC50 greater than 3300 nM and an Emax of less than 20%.

`Cc1nccc2c1[nH]c1c(-c3cccc(CN4CCOCC4)c3)cc(Cl)cc12` [Example 255, 6-Chloro-1-methyl-8-(3-morpholin-4-ylmethyl-phenyl)-9H-pyrido[3,4-b]indole]: the EC50 was greater than 3300 nM and the Emax was less than 20%.

Regarding `CCn1c2c(-c3ccc(OCC4(C)COC4)cc3)cc(Br)cc2c2ccnc(C)c21` [Example 257, 6-Bromo-9-ethyl-1-methyl-8-[4-(3-methyl-oxetan-3-ylmethoxy)-phenyl]-9H-pyrido[3,4-b]indole], the EC50 was determined as 310 nM and the Emax was greater than 80%.

`Cc1nccc2c1[nH]c1c(-c3ccc(OCCn4cccn4)cc3)cc(Br)cc12` [Example 259, 6-Bromo-1-methyl-8-[4-(2-pyrazol-1-yl-ethoxy)-phenyl]-9H-pyrido[3,4-b]indole]: the EC50 turned out to be 430 nM and the Emax is greater than 80%.

As to `Cc1nccc2c1[nH]c1c(-c3cccc(OCc4ccc5ccccc5n4)c3)cc(Cl)cc12` [Example 260, 6-Chloro-1-methyl-8-[3-(quinolin-2-ylmethoxy)-phenyl]-9H-pyrido[3,4-b]indole], the EC50 was greater than 1100 nM and the Emax was less than 20%.

For `CCn1c2c(-c3cnn(Cc4ccccn4)c3)cc(Br)cc2c2ccnc(C)c21` [Example 261, 6-Bromo-9-ethyl-1-methyl-8-(1-pyridin-2-ylmethyl-1H-pyrazol-4-yl)-9H-pyrido[3,4-b]indole], the EC50 amounted to 1500 nM and the Emax was greater than 80%.

`Cc1nccc2c1[nH]c1c(-c3ccc(OC(F)(F)F)cc3)cc(Cl)cc12` [Example 262] had an EC50 of 2300 nM and an Emax greater than 80%.

The compound `CCn1c2c(-c3cnn(CCOC(C)=O)c3)cc(Cl)cc2c2ccnc(C)c21` [Example 263, Acetic acid 2-[4-(6-chloro-9-ethyl-1-methyl-9H-pyrido[3,4-b]indol-8-yl)-pyrazol-1-yl]-ethyl ester] returned an EC50 of 550 nM and an Emax greater than 80%.

On to `Cc1nccc2c1[nH]c1c(-c3ccc(OCc4ncccn4)cc3)cc(Cl)cc12` [Example 266, 6-Chloro-1-methyl-8-[4-(pyrimidin-2-ylmethoxy)-phenyl]-9H-pyrido[3,4-b]indole], for which the EC50 was determined as 110 nM and the Emax is greater than 80%.

Compound `Cc1nccc2c1[nH]c1c(-c3cccc(OCc4ncccn4)c3)cc(Cl)cc12` [Example 267, 6-Chloro-1-methyl-8-[3-(pyrimidin-2-ylmethoxy)-phenyl]-9H-pyrido[3,4-b]indole] registered an EC50 greater than 3300 nM and an Emax of 50 to 80%.

Compound `Cc1nccc2c1[nH]c1c(-c3ccc(Oc4ncc(Br)cn4)cc3)cc(Cl)cc12` [Example 268, 8-[4-(5-Bromo-pyrimidin-2-yloxy)-phenyl]-6-chloro-1-methyl-9H-pyrido[3,4-b]indole] registered an EC50 of 340 nM and an Emax greater than 80%.

Compound `Cc1nccc2c1[nH]c1c(-c3cccc(OCc4nccc5ccccc45)c3)cc(Cl)cc12` [Example 269, 6-Chloro-8-[3-(isoquinolin-1-ylmethoxy)-phenyl]-1-methyl-9H-pyrido[3,4-b]indole] gave an EC50 greater than 3300 nM and an Emax of 20 to 50%.

Regarding `COc1cc(OC)nc(COc2cccc(-c3cc(Cl)cc4c3[nH]c3c(C)nccc34)c2)n1` [Example 272, 6-Chloro-8-[3-(4,6-dimethoxy-pyrimidin-2-ylmethoxy)-phenyl]-1-methyl-9H-pyrido[3,4-b]indole], the EC50 is 1900 nM and the Emax was greater than 80%.

On to `Cc1nccc2c1[nH]c1c(-c3cccc(OCc4nccs4)c3)cc(Cl)cc12` [Example 273, 6-Chloro-1-methyl-8-[3-(thiazol-2-ylmethoxy)-phenyl]-9H-pyrido[3,4-b]indole], for which a half-maximal effect (EC50) was put at 170 nM and the maximal effect (Emax) was less than 20%.

`Cc1nccc2c1[nH]c1c(-c3cccc(OCc4ncc5ccccc5n4)c3)cc(Cl)cc12` [Example 274, 6-Chloro-1-methyl-8-[3-(quinazolin-2-ylmethoxy)-phenyl]-9H-pyrido[3,4-b]indole] displayed an EC50 greater than 3300 nM and an Emax of less than 20%.

For `COc1cc(OC)nc(COc2ccc(-c3cc(Cl)cc4c3[nH]c3c(C)nccc34)cc2)n1` [Example 275, 6-Chloro-8-[4-(4,6-dimethoxy-pyrimidin-2-ylmethoxy)-phenyl]-1-methyl-9H-pyrido[3,4-b]indole], a half-maximal response (EC50) required 300 nM and the Emax is greater than 80%.

`CCn1c2c(-c3cnn(CC4OCCO4)c3)cc(Cl)cc2c2ccnc(C)c21` [Example 276, 6-Chloro-8-(1-[1,3]dioxolan-2-ylmethyl-1H-pyrazol-4-yl)-9-ethyl-1-methyl-9H-pyrido[3,4-b]indole] came in with an EC50 of 420 nM and a maximal response (Emax) greater than 80%.

`Cc1nccc2c1[nH]c1c(-c3cccc(OCc4ccc(C(F)(F)F)o4)c3)cc(Cl)cc12` [Example 277, 6-Chloro-1-methyl-8-[3-(5-trifluoromethyl-furan-2-ylmethoxy)-phenyl]-9H-pyrido[3,4-b]indole] had an EC50 greater than 3300 nM and a maximal effect (Emax) of less than 20%.

Compound `Cc1nccc2c1[nH]c1c(-c3ccc(OCC4COc5ccccc5O4)cc3)cc(Cl)cc12` (centres unmarked) [Example 278, 6-Chloro-8-[4-(2,3-dihydro-benzo[1,4]dioxin-2-ylmethoxy)-phenyl]-1-methyl-9H-pyrido[3,4-b]indole] gave an EC50 greater than 3300 nM and an Emax of 20 to 50%.

`Clc1cc(-c2ccc(Cl)nc2)c2c(c1)c1ccncc1n2CC1CCC1` [Example 279, 6-Chloro-8-(6-chloro-pyridin-3-yl)-9-cyclobutylmethyl-9H-pyrido[3,4-b]indole] showed an EC50 of 1800 nM and an Emax of 20 to 50%.
